Patent US20050020654A1, “Novel PPAR agonists, pharmaceutical compositions and uses thereof” (priority 2003, published 2005)
Like-named read-outs stand apart in the source and are kept apart here.

Experiments:
[1] = target: T1, PPARγ (Homo sapiens, UniProt P37231); test: PPARγ transactivation assay (luciferase reporter) in transfected CV-1 cells; assay type: cell-based
T1 construct: expressed in transfected cells; host or cells: CV-1 cells (ATCC CCL-70)
T1 sequence (P37231 1-505): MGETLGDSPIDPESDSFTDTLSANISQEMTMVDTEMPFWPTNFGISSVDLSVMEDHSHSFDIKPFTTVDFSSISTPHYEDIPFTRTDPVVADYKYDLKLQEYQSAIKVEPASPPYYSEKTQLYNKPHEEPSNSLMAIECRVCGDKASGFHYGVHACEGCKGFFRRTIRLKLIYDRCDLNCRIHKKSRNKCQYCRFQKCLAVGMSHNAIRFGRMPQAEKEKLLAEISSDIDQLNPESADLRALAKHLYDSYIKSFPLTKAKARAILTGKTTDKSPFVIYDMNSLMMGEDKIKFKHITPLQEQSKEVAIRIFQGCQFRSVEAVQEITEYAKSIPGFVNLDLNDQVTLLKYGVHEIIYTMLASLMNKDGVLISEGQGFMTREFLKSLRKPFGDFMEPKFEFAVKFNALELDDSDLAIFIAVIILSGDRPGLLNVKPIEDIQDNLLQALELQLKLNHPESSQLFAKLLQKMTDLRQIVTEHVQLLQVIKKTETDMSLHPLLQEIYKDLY
Procedure: PPARγ activity was determined by transactivation assays in CV-1 cells (CCL-70 line from American Type Culture Collection (ATCC), Bethesda, Md.) transfected using the GenePorter transfection reagent (Gene Therapy Systems, San Diego, Calif.) to deliver 200 ng of a PPARγ expression plasmid and 1 μg of a luciferase reporter plasmid and 400 ng pCMVSport b-gal (Gibco, Grand Island, N.J.) as an internal control. 24 hr post-transfection, cells were treated with varying concentrations of the test compounds of this invention, and incubated for an additional 24 hr. Rosiglitazone and pioglitazone, a known PPARγ full agonist, and telmisartan, a known ARB and PPARγ partial agonist (Benson et al. Hypertension (2004) in press) are used as controls. Cell extracts were assayed for luciferase and β-galactosidase activity using Promega (Madison, Wis.) assay systems. All treatments were performed in triplicate, and normalized for β-galactosidase activity. Agonist concentrations yielding half maximal activation (EC50 values) were calculated using GraphPad Prism version 3.03 (GraphPad Software, Inc., San Diego, Calif.).

[2] = assay type: in vivo
Procedure: An obese person (BMI: 34.4 kg/m2, waist circumference: 51 inches) with untreated hypertension, pre-diabetes and the metabolic syndrome was given telmisartan (Micardis®), 80 mg/day, for treatment of high blood pressure. […] The patient has the metabolic syndrome as defined by the National Cholesterol Education Program (NCEP). The metabolic syndrome is associated with a 5-9 fold increase in the risk for developing type 2 diabetes and a 2-3 fold increase risk in cardiovascular mortality. […] After 5 weeks on valsartan (week 15), their glucose, insulin, triglyceride levels, and HOMA-IR score increased, consistent with a reversal in the improved insulin resistance obtained with telmisartan (Table 1). Valsartan was discontinued and they were switched back to telmisartan.

[3] = assay type: in vivo, human
Procedure: A person with hypertension, hypertriglyceridemia, and type 2 diabetes was selected for therapy. […] The patient is taking another medication for type 2 diabetes but the dose of this medication is held constant throughout the trial. The patient is given telmisartan at an oral dose of 80 mg/day. […] The oral dose of telmisartan (Micardis®) is then increased to 160 mg/day. […] The telmisartan (Micardis®) therapy is continued according to the judgment of the clinician in order to maintain the improved control of the patient's blood pressure and their type 2 diabetes.

[4] = target: T1, PPARγ; settings: Benson et al. Hypertension (2004) in press; cited from earlier work
[5] = oral 80 mg/day, after three weeks
[6] = oral 160 mg/day, after seven weeks

Molecule: CCCc1nc2c(C)cc(Br)cc2n1CCOc1ccc(CC2SC(=O)NC2=O)cc1C(=O)O (stereo not drawn) [2-(2-(6-Bromo-4-methyl-2-propyl-1H-benzo[d]imidazol-1-yl)ethoxy)-5-((2,4-dioxothiazolidin-5-yl)methyl)benzoic acid]
- PPAR-γ Fold activation ([1]; @ 0.1 uM): 3.8 x
- PPAR-γ Fold activation ([1]; @ 1 μM): 10 x
- PPAR-γ Fold activation ([1]; @ 10 μM): 15.5 x
- PPAR-γ Fold activation ([1]; @ .01 uM): 1.7 x

Molecule: CCCCC1=NC2(CCCC2)C(=O)N1Cc1ccc(-c2ccccc2-c2nnn[nH]2)cc1 [Irbesartan, reference compound]
- PPARγ activation [1]: 2-3 fold

Molecule: COC(=O)c1cc(CC2SC(=O)NC2=O)ccc1OCCn1c(CCCCC2CCCCC2)nc2ccccc21 (stereo not drawn) [Methyl 2-(2-(2-(4-cyclohexylbutyl)-1H-benzo[d]imidazol-1-yl)ethoxy)-5-((2,4-dioxothiazolidin-5-yl)methyl)benzoate]
- PPAR-γ Fold activation ([1]; @ 0.1 uM): 2 x
- PPAR-γ Fold activation ([1]; @ 1 μM): 24 x
- PPAR-γ Fold activation ([1]; @ 10 μM): 34 x
- PPAR-γ Fold activation ([1]; @ .01 uM): 1 x

Molecule: CCCc1nc2c(C)cc(Br)cc2n1CCOc1ccc(CC2SC(=O)NC2=O)cc1C(=O)OC (stereo not drawn) [Methyl 2-(2-(6-bromo-4-methyl-2-propyl-1H-benzo[d]imidazol-1-yl)ethoxy)-5-((2,4-dioxothiazolidin-5-yl)methyl)benzoate]
- PPAR-γ Fold activation ([1]; @ 0.1 uM): 3.1 x
- PPAR-γ Fold activation ([1]; @ 1 μM): 32 x
- PPAR-γ Fold activation ([1]; @ 10 μM): 41 x
- PPAR-γ Fold activation ([1]; @ .01 uM): 1 x

Molecule: CCCc1nc2c(C)cc(-c3nc4ccccc4n3C)cc2n1Cc1ccc(-c2ccc(C(=O)O)cc2C(=O)O)cc1 [averysartan]
- PPAR-γ Fold activation ([1]; concentration not given): No activity

Molecule: CCCc1nc2c(C)cc(-c3nc4ccccc4n3C)cc2n1Cc1ccc(-c2ccc(C(=O)OC)cc2C(=O)OC)cc1 [proaverysartan]
- PPAR-γ Fold activation ([1]; @ 0.1 uM): 1 x
- PPAR-γ Fold activation ([1]; @ 1 μM): 5 x
- PPAR-γ Fold activation ([1]; @ 5 uM): 9 x
- PPAR-γ Fold activation ([1]; @ 10 μM): 11 x

Molecule: CCCc1nc2c(C)cc(-c3nc4ccccc4n3C)cc2n1Cc1ccc(-c2ccccc2C(=O)O)cc1 [telmisartan]
- activation of the receptor relative to maximum level of activity achieved by the full agonists pioglitazone and rosiglitazone [1]: 25%-30%
- PPARγ activation ([1]; tested at concentrations 1-5 mM): 5-8 fold
- blood pressure ([2]; 80 mg/day, throughout the observation period): normalized and remained normal
- blood glucose, insulin and triglyceride concentrations ([2]; 80 mg/day, up to week 10): progressively decreased
- insulin resistance, HOMA-IR score ([2]; 80 mg/day, up to week 10): improvement in insulin resistance
- fluid retention, peripheral edema, pulmonary edema, or congestive heart failure on clinical examination ([2]; human, in vivo): no evidence of any increase
- insulin resistance and triglycerides ([2]; switched back from valsartan, following 4 weeks (week 19)): again improved
- HDL cholesterol [3, 5]: 50 mg/dL
- blood pressure [3, 5]: 143/91
- fasting glucose [3, 5]: 188 mg/dL
- triglyceride [3, 5]: 281 mg/dL
- HDL cholesterol [3, 6]: 60 mg/dL
- blood pressure [3, 6]: 131/81
- glucose level [3, 6]: 145 mg/dL
- triglyceride level [3, 6]: 178 mg/dL
- activation of PPARγ [4]: has been shown to activate PPARγ

Molecule: CCCCC(=O)N(Cc1ccc(-c2ccccc2-c2nnn[nH]2)cc1)[C@H](C(=O)O)C(C)C [valsartan]
- glucose, insulin, triglyceride levels, and HOMA-IR score ([2]; 160 mg/day, after 5 weeks (week 15), after switch from telmisartan): increased
- activation of PPARγ [4]: does not activate PPARγ

Molecule: Methyl 5-((2,4-dioxothiazolidin-5-yl)methyl)-2-(2-(4-methyl-6-phenyl-2-propyl-1H-benzo[d]imidazol-1-yl)ethoxy)benzoate
- PPAR-γ Fold activation ([1]; @ 0.1 uM): 1.2 x
- PPAR-γ Fold activation ([1]; @ 1 μM): 6.1 x
- PPAR-γ Fold activation ([1]; @ 10 μM): 7.4 x
